Source: PMC7555825, “New Insights of the Zn(II)-Induced P2 × 4R Positive Allosteric Modulation: Role of Head Receptor Domain SS2/SS3, E160 and D170” (International Journal of Molecular Sciences, 2020)

Experiments:
rP2 × 4R [1] = target: T1, rP2 × 4R (Rattus norvegicus, UniProt P51577); parameters: method as in PMID 17962187; details: treatment in the absence of Zn(II); cited from earlier work
T1 construct: host or cells: Xenopus laevis oocytes (intranuclear plasmid injection, pcDNA3)
T1 sequence (P51577 1-388): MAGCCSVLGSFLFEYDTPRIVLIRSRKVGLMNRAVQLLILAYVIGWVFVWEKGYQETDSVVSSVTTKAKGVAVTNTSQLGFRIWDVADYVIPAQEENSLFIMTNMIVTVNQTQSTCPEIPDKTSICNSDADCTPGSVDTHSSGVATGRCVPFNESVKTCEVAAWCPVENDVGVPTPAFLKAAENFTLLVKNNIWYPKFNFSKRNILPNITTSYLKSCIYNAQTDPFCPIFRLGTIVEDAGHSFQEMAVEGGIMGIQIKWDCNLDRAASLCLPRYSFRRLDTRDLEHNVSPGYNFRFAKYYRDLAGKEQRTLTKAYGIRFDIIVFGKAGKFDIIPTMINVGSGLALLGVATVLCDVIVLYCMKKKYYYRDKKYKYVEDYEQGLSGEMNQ

rP2 × 4R [2] = target: T1, rP2 × 4R; assay: Short protocol: Zn(II) potentiation of single 10 µM ATP-evoked currents before/after thiol reagent treatment, rP2 × 4R oocytes; assay type: cell-based; details: for effect of alkylator plus Zn(II) treatment on Zn(II)-induced potentiation: 300 µM alkylator + 10 µM Zn(II)
Method: (§1) A simpler and shorter assay to test the Zn(II) potentiation was developed to better assess the loss of Zn(II) modulation elicited by the joint co-treatment of NEM plus Zn(II). […] Ten minutes after alkylator washout, cells were treated with Zn(II) plus NEM or iodoacetamide (IA) for 5 min followed by 20 min of alkylator washout. Next, the P2 × R was tested again to examine the magnitude of the Zn(II) potentiation.
(§2) After 10 min of washout we applied 300 µM NEM, 300 µM IA, 300 µM IAc, or 300 µM DTNB for 5 min in absence or presence of Zn(II) (10 µM for rP2 × 4R and 30 µM for rP2 × 2R).
(§3) After 10 min of washout we applied 300 µM NEM + 10 µM DTT.

rP2 × 2R = target: T2, rP2 × 2R (Rattus norvegicus, UniProt P49653); assay: Short protocol: Zn(II) potentiation of single 10 µM ATP-evoked currents before/after thiol reagent treatment, rP2 × 2R oocytes; assay type: cell-based; parameters: expressed in transfected cells; host or cells: Xenopus laevis oocytes (intranuclear plasmid injection); details: for effect of alkylator plus Zn(II) treatment on Zn(II) potentiation/modulation: 300 µM alkylator + 30 µM Zn(II), 5 min, 20 min washout
T2 sequence (P49653 1-472): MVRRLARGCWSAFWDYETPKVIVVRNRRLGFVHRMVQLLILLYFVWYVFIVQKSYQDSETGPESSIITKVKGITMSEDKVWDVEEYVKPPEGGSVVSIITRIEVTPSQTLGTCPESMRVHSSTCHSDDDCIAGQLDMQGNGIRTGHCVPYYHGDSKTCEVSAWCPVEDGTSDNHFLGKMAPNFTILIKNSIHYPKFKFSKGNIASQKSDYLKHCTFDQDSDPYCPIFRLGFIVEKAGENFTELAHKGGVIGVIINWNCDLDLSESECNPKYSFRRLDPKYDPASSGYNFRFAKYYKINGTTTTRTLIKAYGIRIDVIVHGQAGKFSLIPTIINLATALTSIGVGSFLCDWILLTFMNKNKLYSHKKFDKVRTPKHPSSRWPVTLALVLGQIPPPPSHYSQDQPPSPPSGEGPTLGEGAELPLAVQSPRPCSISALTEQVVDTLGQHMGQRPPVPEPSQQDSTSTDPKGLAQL
Method: as §1, §2

rP2 × 4R [3] = target: T1, rP2 × 4R; assay: ATP concentration–response curves, two-electrode voltage clamp in oocytes expressing wild type rP2 × 4R; assay type: cell-based; details: NEM plus Zn(II) treatment; irreversible alkylation
rP2 × 4R [4] = target: T1, rP2 × 4R; assay: Short protocol: Zn(II) potentiation of single 10 µM ATP-evoked currents before/after thiol reagent treatment, rP2 × 4R oocytes; assay type: cell-based; details: 10, 30, 100 µM DTT
oocytes = assay: Toxicity of DTT to oocytes (loss of holding potential); assay type: cell-based, Xenopus laevis; details: DTT concentrations larger than 100 µM; holding potential lost
Method: Larger DTT concentrations were toxic since the oocyte holding potential was lost, a likely acute toxicity indication.
as §3

C[N+](C)(C)CCSS(C)(=O)=O [MTSET, 2-(trimethylammonium)ethyl methanethiosulfonate]
effect of MTSET treatment on Zn(II) potentiation (rP2 × 4R [1]): diminish the Zn(II) potentiation

NC(=O)CI [IA, Iodoacetamide]
ATP-evoked currents after IA plus Zn(II) treatment (rP2 × 4R [2]; 300 µM IA + 10 µM Zn(II), 5 min, 20 min washout): not increased
effect of alkylator plus Zn(II) treatment on Zn(II)-induced potentiation (rP2 × 4R [2]; 5 min, 20 min washout): abolished the Zn(II)-induced potentiation
effect of alkylator plus Zn(II) treatment on Zn(II) potentiation/modulation (rP2 × 2R): annulled the Zn(II) potentiation
fold enhancement of ATP-evoked currents after treatment (rP2 × 2R; after IA + 30 µM Zn(II) treatment): 8.6 ± 3.3 fold

O=C(O)c1cc(SSc2ccc([N+](=O)[O-])c(C(=O)O)c2)ccc1[N+](=O)[O-] [DTNB, 5,5’-dithiobis-(2-nitrobenzoic) acid]
effect of alkylator plus Zn(II) treatment on Zn(II)-induced potentiation (rP2 × 4R [2]; 5 min, 20 min washout): neither of the reagents blocked

CCN1C(=O)C=CC1=O [NEM, N-ethylmaleimide]
time the lack of metal potentiation endured after NEM treatment (rP2 × 4R [3]): at least 1 h
fold increase of ATP-evoked currents after treatment (rP2 × 4R [2]; 10 µM ATP, after 300 µM NEM plus 10 µM Zn(II) treatment, vs first ATP current): 4.0 ± 1.0 fold
effect of alkylator plus Zn(II) treatment on Zn(II)-induced potentiation (rP2 × 4R [2]; 5 min, 20 min washout): abolished the Zn(II)-induced potentiation
effect of alkylator plus Zn(II) treatment on Zn(II) potentiation/modulation (rP2 × 2R): Did Not Annul
fold enhancement of ATP-evoked currents after treatment (rP2 × 2R; after NEM + 30 µM Zn(II) treatment): 3.3 ± 0.5 fold

O=C(O)CI [IAc, Iodoacetate]
effect of alkylator plus Zn(II) treatment on Zn(II)-induced potentiation (rP2 × 4R [2]; 5 min, 20 min washout): neither of the reagents blocked

O[C@@H](CS)[C@@H](O)CS (racemic) [DTT, dithiothreitol]
fold enhancement of ATP-evoked currents after treatment (rP2 × 4R [2]; after combined 10 µM DTT plus 300 µM NEM treatment, 5 min, 20 min washout): 3.9 ± 1.2 fold
potentiation of 10 µM ATP-evoked currents by co-applied DTT (rP2 × 4R [4]): neither 10, 30, nor 100 µM DTT potentiated the ATP-evoked currents
toxicity to oocytes (oocytes): toxic
